# Measurements taken from patent US10767212B2, “Method of screening compounds” (Cornell University, priority 2016, dated 2020).
# Values joined by “and” are separate entries in the source; they are usually repeats but may differ in a detail not shown here. Equal values may be shown once. Read-outs that look alike come from different tables or passages of the source.
# T1: GAC tetramers (Mus musculus, UniProt D3Z7P3)
# T1 sequence (D3Z7P3 73-603 isoform D3Z7P3-2): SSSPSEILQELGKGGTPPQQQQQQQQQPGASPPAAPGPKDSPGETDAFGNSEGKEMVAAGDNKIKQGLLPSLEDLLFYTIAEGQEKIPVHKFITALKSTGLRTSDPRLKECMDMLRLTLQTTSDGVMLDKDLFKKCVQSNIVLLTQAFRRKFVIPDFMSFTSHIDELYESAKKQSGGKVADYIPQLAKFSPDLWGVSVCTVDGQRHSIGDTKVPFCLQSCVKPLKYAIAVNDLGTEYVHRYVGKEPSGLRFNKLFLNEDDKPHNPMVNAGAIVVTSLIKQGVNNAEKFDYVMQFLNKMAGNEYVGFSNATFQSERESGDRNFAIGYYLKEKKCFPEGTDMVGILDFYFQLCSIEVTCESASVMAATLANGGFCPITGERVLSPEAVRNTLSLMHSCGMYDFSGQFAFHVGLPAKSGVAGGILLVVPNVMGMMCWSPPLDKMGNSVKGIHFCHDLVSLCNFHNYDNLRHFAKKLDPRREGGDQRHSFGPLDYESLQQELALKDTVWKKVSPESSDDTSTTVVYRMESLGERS
# T2: GACF327W (Mus musculus, UniProt D3Z7P3, F327W)
# T2 sequence (D3Z7P3 73-603 isoform D3Z7P3-2 F327W): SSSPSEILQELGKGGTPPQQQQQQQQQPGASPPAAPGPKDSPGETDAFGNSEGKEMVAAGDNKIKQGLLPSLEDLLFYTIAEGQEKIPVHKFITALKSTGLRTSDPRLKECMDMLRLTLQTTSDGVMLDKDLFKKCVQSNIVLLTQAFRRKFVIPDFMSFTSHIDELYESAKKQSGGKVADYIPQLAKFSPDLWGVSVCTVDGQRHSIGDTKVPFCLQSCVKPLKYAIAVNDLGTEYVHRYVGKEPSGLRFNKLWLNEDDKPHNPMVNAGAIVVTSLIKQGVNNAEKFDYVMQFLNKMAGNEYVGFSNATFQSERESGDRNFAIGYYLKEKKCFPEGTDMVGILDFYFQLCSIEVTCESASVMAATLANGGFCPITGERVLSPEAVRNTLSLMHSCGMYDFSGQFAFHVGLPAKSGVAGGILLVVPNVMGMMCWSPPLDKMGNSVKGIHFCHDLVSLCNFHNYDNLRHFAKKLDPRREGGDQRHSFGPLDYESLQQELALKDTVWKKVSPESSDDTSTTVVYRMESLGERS
# T3: GAC (Mus musculus, UniProt D3Z7P3)
# T3 sequence (D3Z7P3 73-603 isoform D3Z7P3-2): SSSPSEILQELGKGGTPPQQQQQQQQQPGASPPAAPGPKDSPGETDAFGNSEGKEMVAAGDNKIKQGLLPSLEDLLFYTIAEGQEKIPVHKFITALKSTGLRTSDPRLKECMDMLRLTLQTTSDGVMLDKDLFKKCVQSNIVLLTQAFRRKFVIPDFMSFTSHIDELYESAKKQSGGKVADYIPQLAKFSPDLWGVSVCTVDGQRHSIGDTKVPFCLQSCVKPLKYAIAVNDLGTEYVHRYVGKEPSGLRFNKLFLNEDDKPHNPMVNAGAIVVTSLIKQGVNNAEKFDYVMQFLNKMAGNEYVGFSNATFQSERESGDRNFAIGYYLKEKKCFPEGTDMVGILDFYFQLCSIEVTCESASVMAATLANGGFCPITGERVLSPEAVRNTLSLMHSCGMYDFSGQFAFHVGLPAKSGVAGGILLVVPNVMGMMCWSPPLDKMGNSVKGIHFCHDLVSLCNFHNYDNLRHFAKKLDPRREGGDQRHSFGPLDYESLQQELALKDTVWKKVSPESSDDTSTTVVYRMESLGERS
# T4: WT GAC (Mus musculus, UniProt D3Z7P3)
# T4 sequence (D3Z7P3 73-603 isoform D3Z7P3-2): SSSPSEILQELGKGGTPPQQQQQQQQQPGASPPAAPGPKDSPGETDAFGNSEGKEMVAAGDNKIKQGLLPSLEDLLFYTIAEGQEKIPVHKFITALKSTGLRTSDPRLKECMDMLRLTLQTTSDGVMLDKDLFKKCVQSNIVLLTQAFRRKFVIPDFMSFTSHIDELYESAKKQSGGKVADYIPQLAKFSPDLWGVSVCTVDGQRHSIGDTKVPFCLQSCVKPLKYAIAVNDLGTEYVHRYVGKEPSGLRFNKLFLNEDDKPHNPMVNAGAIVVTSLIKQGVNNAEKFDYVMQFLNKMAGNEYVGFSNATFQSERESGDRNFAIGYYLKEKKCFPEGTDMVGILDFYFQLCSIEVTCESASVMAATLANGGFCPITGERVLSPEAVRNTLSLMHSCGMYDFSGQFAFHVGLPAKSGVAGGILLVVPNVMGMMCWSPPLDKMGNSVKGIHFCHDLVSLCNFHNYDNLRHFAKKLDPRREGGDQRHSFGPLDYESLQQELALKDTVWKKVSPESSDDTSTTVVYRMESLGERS
# Tests used:
# GAC tetramers = molecular target: T1, GAC tetramers; conditions: for FRET signal (GAC tetramer formation): 25 nM 488-labeled GAC, 75 nM QSY9-GAC; for reversibility of bound GAC tetramers: after addition of excess unlabeled GAC subunits
# GACF327W [1] = molecular target: T2, GACF327W; conditions: for enhancement of the tryptophan fluorescence of the F327W mutant: addition of anionic activator, 50 mM anion, 400 nM F327W in FIG. 10A
# GAC [2] = molecular target: T3, GAC; conditions: for Kd: read-out: KD values from glutaminase activity with increasing concentrations of anion, 50 nM WT GAC, allosteric activation
# WT GAC = molecular target: T4, WT GAC; conditions: 5 mg/ml WT GAC; 50 mM anion in the running buffer
# GAC [3] = molecular target: T3, GAC; experiment: Real-time NADH fluorescence assay of GAC activity; type: biochemical; parameters: residues 73-603) was cloned into a pET28a vector; His tag with thrombin cleavage site (N); made in house; conditions: 1 μM inhibitor, 10 nM GAC, 20 mM glutamine, 100 mM HPO4^2−
# Description: FIG. 4A is a spectra of real-time NADH assays of GAC activity, in which the increased NADH fluorescence (in arbitrary units (AU)) results from the coupled reaction where GAC catalyzes glutamate production, and GDH converts glutamate to α-ketoglutarate and NAD to NADH. […] FIG. 4B is a graph of relative glutaminase activity. […] Error bars represent the standard deviation of three independent experiments.
# GAC [4] = molecular target: T3, GAC; experiment: biochemical
# GACF327W [5] = molecular target: T2, GACF327W; experiment: biochemical; conditions: KD from fluorescence quenching of the GACF327W mutant, 100 nM GACF327W; fit to a bimolecular interaction equation
# [6] = Catalytic properties of GAC proteins (phosphate-stimulated glutaminase activity); type: biochemical, mouse
reversibility of bound GAC tetramers (GAC tetramers),Molecule,FRET signal (GAC tetramer formation) (GAC tetramers; 100 mM anion),enhancement of the tryptophan fluorescence of the F327W mutant (GACF327W [1]) [%],Kd (GAC [2]) [µM],Km [6] [mM],Vmax [6] [µmol/min],also measured
readily reversible,O=P(O)(O)O [inorganic phosphate],rapidly increases the FRET signal,25,20600 ± 400,–,–,oligomer size from molecular weight distribution (WT GAC): greater than 32 mers
resistant to dissociation,O=C(Cc1cccc(OC(F)(F)F)c1)Nc1ccc(CCCCc2nnc(NC(=O)Cc3ccccn3)s2)nn1 [CB-839],–,–,–,–,–,"inhibition of phosphate-stimulated GAC activity (initial rate analysis) (GAC [3]): stronger inhibition; IC50 (GAC [4]): 0.023 ± 0.001 µM; FRET signal (GAC tetramer formation) (GAC tetramers; 500 nM inhibitor): rapidly increases the FRET signal; Kd (GACF327W [5]): 0.034 µM and 0.03 µM; change in tryptophan fluorescence of GACF327W upon addition of inhibitor (GACF327W [1]; 1 μM BPTES in FIG. 6B, increasing concentrations in FIGS. 8A-B): dose-dependent quenching; binding kinetics (comparison) (GACF327W [1]; real-time F327W fluorescence): slower binding kinetics than BPTES"
–,"GACF327W: mutant mouse GLS protein (GAC) with phenylalanine to tryptophan substitution at position 327 (protein, Mouse GAC with F327W substitution) MMRLRGSAMLRELLLRPPAAVGAVLRRAQPLGTLCRRPRGGSRPTAGLVAAARLHPWWGGGGRAKGPGAGGLSSSPSEILQELGKGGTPPQQQQQQQQQPGASPPAAPGPKDSPGETDAFGNSEGKEMVAAGDNKIKQGLLPSLEDLLFYTIAEGQEKIPVHKFITALKSTGLRTSDPRLKECMDMLRLTLQTTSDGVMLDKDLFKKCVQSNIVLLTQAFRRKFVIPDFMSFTSHIDELYESAKKQSGGKVADYIPQLAKFSPDLWGVSVCTVDGQRHSIGDTKVPFCLQSCVKPLKYAIAVNDLGTEYVHRYVGKEPSGLRFNKLWLNEDDKPHNPMVNAGAIVVTSLIKQGVNNAEKFDYVMQFLNKMAGNEYVGFSNATFQSERESGDRNFAIGYYLKEKKCFPEGTDMVGILDFYFQLCSIEVTCESASVMAATLANGGFCPITGERVLSPEAVRNTLSLMHSCGMYDFSGQFAFHVGLPAKSGVAGGILLVVPNVMGMMCWSPPLDKMGNSVKGIHFCHDLVSLCNFHNYDNLRHFAKKLDPRREGGDQRHSFGPLDYESLQQELALKDTVWKKVSPESSDDTSTTVVYRMESLGERS",–,–,–,15 ± 1.7,435 ± 19,–
–,"WT GAC: recombinant wild-type mouse glutaminase C, NP_001106854.1, residues 73-603 (protein, left off: small tags and cut ends) SSSPSEILQELGKGGTPPQQQQQQQQQPGASPPAAPGPKDSPGETDAFGNSEGKEMVAAGDNKIKQGLLPSLEDLLFYTIAEGQEKIPVHKFITALKSTGLRTSDPRLKECMDMLRLTLQTTSDGVMLDKDLFKKCVQSNIVLLTQAFRRKFVIPDFMSFTSHIDELYESAKKQSGGKVADYIPQLAKFSPDLWGVSVCTVDGQRHSIGDTKVPFCLQSCVKPLKYAIAVNDLGTEYVHRYVGKEPSGLRFNKLFLNEDDKPHNPMVNAGAIVVTSLIKQGVNNAEKFDYVMQFLNKMAGNEYVGFSNATFQSERESGDRNFAIGYYLKEKKCFPEGTDMVGILDFYFQLCSIEVTCESASVMAATLANGGFCPITGERVLSPEAVRNTLSLMHSCGMYDFSGQFAFHVGLPAKSGVAGGILLVVPNVMGMMCWSPPLDKMGNSVKGIHFCHDLVSLCNFHNYDNLRHFAKKLDPRREGGDQRHSFGPLDYESLQQELALKDTVWKKVSPESSDDTSTTVVYRMESLGERS",–,–,–,16.4 ± 0.4,453 ± 8,–

Molecule,reversibility of bound GAC tetramers (GAC tetramers),FRET signal (GAC tetramer formation) (GAC tetramers; 100 mM anion),enhancement of the tryptophan fluorescence of the F327W mutant (GACF327W [1]) [%],Kd (GAC [2]) [µM],Km [6] [mM],Vmax [6] [µmol/min],also measured
O=S(=O)(O)O [sulfate],readily reversible,rapidly increases the FRET signal,15,36400 ± 3000,–,–,effectiveness in activating GAC relative to phosphate (GAC [2]; relative to phosphate (HPO4^2−)): −50%
